# Test results as given in patent publication US20110105430A1, “PYRROLO [2,3-C] PYRIDINE DERIVATIVES AS P38 KINEASE INHIBITING AGENTS” (priority 2008, published 2011).
# pIC50: −log10 of the molar value.
# Tests used:
# p38α = target: T1, p38α (Homo sapiens, UniProt Q16539); experiment: p38 kinase assay, p38-α with peptide substrate (Caliper LabChip); format: biochemical
# T1 construct: purchased Millipore
# Method: Alternatively, p38 kinase assays were performed in a reaction volume of 70 μL in a 384-well plate, at 30° for […] under the following conditions: 50 mM Hepes, pH 7.4, 10 mM MgCl2, 1 mg/ml FA Free BSA, 1 mM DTT, 10 μM ATP, 10 μM p38 peptide [Caliper Life Sciences FL-Peptide 8 (5-FAM-IPTSPITTTYFFFKKK-COOH)] and 5.7 nM p38-α (Millipore), or 14.3 nM unactivated MAPKAP kinase-2, 0.18 nM p38-α (Millipore) and 2 uM RSK peptide [Caliper Life Sciences FL-Peptide 11 (5-FAM-KKLNRTLSVA-COOH)]. Serial dilutions of compounds were added to each reaction in 700 nL DMSO. 700 nL of DMSO was added to the control wells of the reaction plate as the no inhibitor control for each inhibitor titration. The reaction was terminated by the addition of 15 μL of a 100 mM EDTA. Product formation was analyzed using the Caliper LabChip 3000. The Separation buffer contained 100 mM HEPES pH 7.5, 0.015% Brij-35, 2.5% Coating Reagent #3 (Caliper Life Sciences) and 10 mM EDTA. Calculation of the substrate product ratios are performed using the HTS Well Analyzer software provided by Caliper Life Sciences and the percent inhibition at each compound concentration is determined.
# TNF-α = experiment: IC50 hWB (TNF-α release assay); format: cell-based; details: Homo sapiens
# Method: Blood was obtained from healthy volunteers by venipuncture using sodium heparin as an anti-coagulant. Peripheral blood mononuclear cells (PBMCs) were isolated using Lymphocyte Separation Medium (ICN) according to manufacturers specifications. Isolated PBMCs were washed 3 times with FIBSS and diluted to a density of 2×10^6 cells/mL in RPMI+5% autologous human serum. 50 μL of the serial dilutions of inhibitor were added to wells of a 96-well tissue culture plate followed by addition of 100 μL of PBMCs and then 50 μL of RPMI complete medium containing 400 ng/mL LPS. A control well of cells without compound but with LPS (maximal stimulation control) and one without compound and without LPS (background control) were included in each titration. The cells were incubated for 16 hours in a humidified incubator at 37° C., 5% CO2. Supernatants were then harvested and TNF-α levels were quantified by immunoassay using commercial reagents (R&D, Inc).
# T1 sequence (Q16539 whole entry): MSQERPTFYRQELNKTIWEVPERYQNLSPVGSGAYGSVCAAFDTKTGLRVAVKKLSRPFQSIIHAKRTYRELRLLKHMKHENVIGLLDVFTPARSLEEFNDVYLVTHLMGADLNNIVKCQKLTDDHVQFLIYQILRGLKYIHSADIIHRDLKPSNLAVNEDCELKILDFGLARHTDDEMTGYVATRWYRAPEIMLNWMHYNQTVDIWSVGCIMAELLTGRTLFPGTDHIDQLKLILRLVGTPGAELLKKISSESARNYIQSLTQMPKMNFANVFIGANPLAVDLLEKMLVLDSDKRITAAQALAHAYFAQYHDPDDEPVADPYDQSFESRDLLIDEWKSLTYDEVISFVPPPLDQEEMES
SMILES,pIC50 (p38α),pIC50 (TNF-α)
"CN(C)C(=O)c1ccn2cc(Cn3ccc4c(C(=O)c5c(F)cc(F)cc5F)c[nH]c4c3=O)nc2c1 [Example 24, N,N-dimethyl-2-{[7-oxo-3-(2,4,6-trifluorobenzoyl)-1,7-dihydro-6H-pyrrolo[2,3-c]pyridin-6-yl]methyl}imidazo[1,2-a]pyridine-7-carboxamide]",8.42,7.68
"O=c1c2[nH]cc(Cc3c(F)cc(F)cc3F)c2ccn1Cc1nc2ncccc2[nH]1 [Example 29, 6-(1H-imidazo[4,5-b]pyridin-2-ylmethyl)-3-(2,4,6-trifluorobenzyl)-1,6-dihydro-7H-pyrrolo[2,3-c]pyridin-7-one]",6.97,6.30
